Measured values: PMC6571673, “Cytostatic and Cytotoxic Natural Products against Cancer Cell Models” (Molecules, 2019)

Tests used:
UoC-B1 = test: CTG viability assay (CellTiter-Glo, 72 h); type: cell-based; conditions: Homo sapiens, mean ± SEM of triplicates
Description: (§1) All human cell lines were incubated at 37 °C in a 5% CO2 atmosphere and maintained under sterile conditions. Cells were tested for Mycoplasma (Lonza, Alpharetta, GA, USA) using the manufacturer’s conditions prior to experiments. Cell lines were purchased from American Type Culture Collection (ATCC, Manassas, VA, USA) or Leibniz-Institute Deutsche Sammlung von Mikroorganismen und Zellkulturen GmbH (DSMZ, Braunschweig, Germany) and cultured without antibiotics unless stated. Leukemia cells were cultured in RPMI and supplemented with 10% fetal bovine serum (FBS, Hyclone, Logan, UT, USA). SUP-B15, and KOPN-8 lines were cultured in RPMI supplemented with 10% FBS (Hyclone), 1% GlutaMAX™, 1% Pen/Step, and 0.1% β-mercaptoethanol. BJ cells were cultured in EMEM media supplemented with 10% FBS (Hyclone). Breast cancer cells (MDA-MB-231 & SUM149) were cultured in DMEM and Ham’s F12 respectively, supplemented with 10% FBS, 1% GlutaMAX™, 1% Pen/Step, and 2 µM cortisol/1 µg/mL insulin for SUM149. Both cells were grown to 80% confluence densities as recommended by ATCC. PBMCs were supplemented with concanavalin-A (5 μg/mL) and IL-2 (50 U/ml). To test general cytotoxicity, the following cell numbers were used for 384 well plates: KOPN-8 (ACC 552, infant human B cell precursor acute lymphoblastic leukemia with MLL-MLLt1/ENL fusion, 1000 cells/well), SUP-B15 (ACC389, human B cell precursor acute lymphoblastic leukemia of pediatric second relapse carrying the ALL-variant (m-bcr) of BCR-ABL1 fusion gene (e1-a2), 1600 cells/well), NALM-06 (DSMZ ACC128, non-T/non-B ALL at relapse with P15INK4B and P16INK4A deletions, 1200 cells/well), UoC-B1 (pediatric BCP-ALL at second relapse with TCF3/E2A-HFL fusion, 1000 cells/well), BJ (CRL-2522, normal human foreskin fibroblast cells, 400 cells/well) and PBMCs (periphery blood monocyte cells from healthy donors, IBC#BDC046, 10,000 cells/well).
(§2) Cytotoxicity evaluation was performed using the CellTiter-Glo Luminescent Cell Viability Assay kit (G7570, Promega, Madison, WI, USA), according to the manufacturer’s instructions. Briefly, the cell concentrations used were experimentally determined to ensure logarithmic growth during the 72-h duration of the experiment, and avoid adverse effects on cell growth by DMSO exposure. 1 × 10^3–4.8 × 10^3 or 4 × 10^2–1.2 × 10^3 cells/well were seeded in 96 or 384-well white flat-bottomed plates (3610 or 8804BC, Corning, Corning, NY, USA) in 100 µL or 30 µL/well, respectively. The plates were incubated at 37 °C in 5% CO2 for 24 h before drugging. Test compounds (10 mM in DMSO) in nine 3-fold serial dilutions were dispensed via pintool (Biomek liquid handler, Beckman, Indianapolis, USA) to assay plates. The final concentration of DMSO was 0.3% (v/v) in each well. The positive controls included staurosporine (10 μM), and gambogic acid (10 μM). The plates were incubated for 72 h at 37 °C in 5% CO2, then quenched with CellTiter-Glo® (Promega, Madison, WI, USA, 50 µL/96 or 30 µL/384), centrifuged at 1000 rpm for 1 min and incubated at RT for 20 min. Luminescence was recorded with a plate reader (Envision, Perkin Elmer, Waltham, MA, USA). The mean luminescence of each experimental treatment group was normalized as a percentage of the mean intensity of untreated controls. EC50 values were calculated by Pipeline Pilot software (Accelrys, Enterprise Platform, San Diego, CA, USA).

PBMC = test: CTG viability assay (CellTiter-Glo, 72 h); type: cell-based; conditions: Homo sapiens, non-cancerous cells
Description: as §1, §2

KOPN-8 [1] = test: CTG viability assay (CellTiter-Glo, 72 h); type: cell-based; conditions: Homo sapiens, mean ± SEM of triplicates
Description: as §1, §2

NALM-06 = test: CTG viability assay (CellTiter-Glo, 72 h); type: cell-based; conditions: Homo sapiens, mean ± SEM of triplicates
Description: as §1, §2

[2] = system: de novo protein synthesis in MDA-MB-231; test: EZClick in-cell-click de novo protein synthesis assay; type: cell-based, human; conditions: MDA-MB-231, 2 h exposure time
Description: Protein synthesis is essential in cell growth, proliferation, signaling, differentiation, and death. […] The assay includes a robust chemical method based on an alkyne containing o-propargyl-puromycin probe, which stops translation by forming covalent conjugates with nascent polypeptide chains. Truncated polypeptides are rapidly turned over by the proteasome and can be detected based on the subsequent click reaction with a fluorescent azide. To test whether these compounds (4–14) induced de novo protein synthesis inhibition, compounds were tested for a 2 h exposure time, under the same conditions as the known protein synthesis inhibitor cycloheximide (CHX) in MDA-MB-231 cell model following an in-cell-click de novo protein synthesis assay.
Biovision’s EZClick™ protein synthesis monitoring assay kit (EZClick™ Global Protein Synthesis Assay Kit, Catalog # K715-100, Milpitas, CA, USA) was used according to manufacturer’s protocol. The assay was conducted in 8-well chambered coverslips (ibidi GmbH µ-slide # 80826, Martinsried, Germany). Cells were plated at 2 × 10^4 per well and incubated at 37 °C for 12 h. Then, the cells were treated with compounds for 1.5 h and processed and stained according to protocol (representative images shown in Figure 4). Protein synthesis activity is shown in red, DNA staining is shown in green. Cycloheximide (CHX) was used as a positive control and DMSO as the negative control. Images shown were taken with a Marianas CSU-X spinning disk confocal imaging system (3i, Denver, CO, USA) configured with a Zeiss Axio Observer microscope (Carl Zeiss Inc., Thornwood, NY, USA) with diode lasers, at 63× magnification and resolution of 512 × 512 pixels (3i). For each field of view, an image stack consisting of 20 optical sections were taken at 63× magnification. The total intensity of red and green staining was quantified for the entire image stack. Six fields of view were analyzed per condition. Images shown represent a single optical section for each field of view. For each stack, the red intensity (protein synthesis) was adjusted to the green intensity (DNA content) in each image. The numbers from six images were used to calculate the average and standard deviation for each condition. Numbers were normalized to the negative control value arbitrarily set to one. The Slide viewer 6 software package was used for rendering and analysis of the images.

BJ = test: CTG viability assay (CellTiter-Glo, 72 h); type: cell-based, human; conditions: Homo sapiens, BJ; CellTiter-Glo, 72 h; non-cancerous cells
Description: as §1, §2

SUP-B15 [3] = test: CTG viability assay (CellTiter-Glo, 72 h); type: cell-based, human; conditions: Homo sapiens
Description: as §1, §2

SUP-B15 [4] = test: Cell cycle analysis (PI DNA content, flow cytometry); type: cell-based, human; conditions: SUP-B15, 24 h; for cell cycle effect: silvestrol 5 µM, 8 5 µM, 9 10 µM, 10 5 µM, 12 10 µM, 13 10 µM
Description: (§3) The samples were probed with AnnexinV-FITC (Roche/Boehringer Mannheim, Indianapolis, IN, USA) according to the manufacturer’s instructions. KOPN-8 or SUB-P15 cells were plated (1.00 × 10^6 cells/plate) and incubated for 12 h and incubated at 37 °C. Then, cells were treated with compounds or controls for 24 h. Cells were stained with AnnexinV-FITC, PI and the staining profiles were determined with FACScan and Cell-Quest software. For cellular DNA content, the same cell treatment as above was performed. Then, cells were fixed in cold 75% ethanol, treated with RNase and then stained with PI solution (50 µg/mL). Cell cycle distribution was analyzed with the FACSCalibur analyzer (BD Biosciences, Franklin Lakes, NJ, USA) and Cell-Quest software. The percentage of DNA content at different phases of the cell cycle was analyzed with ModFit-software (version 5.0, Verity Software House, Topsham, ME, USA).

KOPN-8 [5] = test: as above; type: cell-based, human; conditions: KOPN-8, 24 h; silvestrol 5 µM, 8 5 µM, 9 10 µM, 10 5 µM, 12 10 µM, 13 10 µM
Description: as §3

SUP-B15 [6] = test: Annexin V/PI apoptosis flow cytometry assay; type: cell-based, human; conditions: SUP-B15, 24 h; for late apoptotic state or cell death: 10 µM
Description: as §3

KOPN-8 [7] = test: Annexin V/PI apoptosis flow cytometry assay; type: cell-based, human; conditions: KOPN-8, 24 h; for late apoptotic state or cell death: 10 µM
Description: as §3

MDA-MB-231 = test: Propidium iodide (PI) assay, 48 h; type: cell-based, human; conditions: MDA-MB-231, 48 h
Description: (§4) The first step was to evaluate if the compounds display cytotoxicity against the adherent cells. Propidium iodide (PI) assay was performed for the drug resistant solid tumor cellular models (triple negative breast cancer models: SUM149 and MDA-MB-231) for 48 h (Figure 5) [30, 31].

SUM149 = test: Propidium iodide (PI) assay, 48 h; conditions: SUM149, 48 h
Description: as §4

[8] = system: human cancer cell lines such as oral carcinoma, melanoma, acute myelogenous leukemia, and cervical cancer; design: method as in PMID 15132542, PMID 22128783, PMID 24086701, PMID 19190247; conditions: several human cancer cell lines; cited from earlier work
[9] = SUP-B15, 72 h, mean ± SEM of triplicates
[10] = 8 5 µM, 9 10 µM, 10 5 µM, 12 10 µM, 13 10 µM

Compound	EC50 (UoC-B1) [µM]	EC50 (PBMC) [µM]	EC50 (KOPN-8 [1]) [µM]	EC50 (NALM-06) [µM]	de novo protein synthesis inhibition [2]	EC50 (BJ) [µM]	EC50 (SUP-B15 [3]; [9]) [µM]	reduction in the percentage of cells in the S phase (SUP-B15 [4]; 10 µM)	cell cycle effect (SUP-B15 [4])	cell cycle effect (KOPN-8 [5])	EC50 (SUP-B15 [3]; SUP-B15, mean ± SEM of triplicates) [µM]	late apoptotic state or cell death (SUP-B15 [6])	live cells (Annexin-, PI-) (SUP-B15 [6]; [10])	late apoptotic state or cell death (KOPN-8 [7])	live cells (Annexin-, PI-) (KOPN-8 [7]; [10])	activity in PI assay (MDA-MB-231)	activity in PI assay (SUM149)	IC50 values [8]
CC(C)(O)CC[C@@H](O)[C@](C)(O)[C@H]1CC[C@@]2(O)C3=CC(=O)[C@@H]4C[C@@H](O)[C@@H](O)C[C@]4(C)[C@H]3CC[C@]12C [Compound 11]	> 21.6	> 43.3	> 43.3	> 43.3	no protein synthesis inhibition	> 43.3	29 ± 6											
C[C@H]([C@H](O)CCC(C)(C)O)[C@H]1CC[C@@]2(O)C3=CC(=O)[C@@H]4C[C@@H](O)[C@@H](O)C[C@]4(C)[C@H]3CC[C@]12C [Compound 12, ecdysone]	> 21.6	> 43.3	> 43.3	> 43.3	little to no protein synthesis inhibition	> 43.3		~ 10%	arrested G2/M	minimal effect on the cell cycle	20.1 ± 3.2	did not capture significant increase of late apoptotic state or cell death	small decrease in live cells	did not capture significant increase of late apoptotic state or cell death	small decrease in live cells			
CC(C)CC[C@@H](O)[C@](C)(O)[C@H]1CC[C@@]2(O)C3=CC(=O)[C@]4(O)C[C@@H](O)[C@@H](O)C[C@]4(C)[C@H]3[C@H](O)C[C@]12C [Compound 13, muristerone A]	> 21.6	> 43.3	> 43.3	0.518 ± 0.15	little to no protein synthesis inhibition	> 43.3	9.5 ± 2.1			minimal effect on the cell cycle		did not capture significant increase of late apoptotic state or cell death		did not capture significant increase of late apoptotic state or cell death				
C/C=C1\C(=O)C[C@@]2(O)[C@@H]3CCC4=CC(=O)CC[C@]4(C)[C@H]3CC[C@]12C [Compound 14]	> 21.6	> 43.3	> 43.3	> 43.3	no protein synthesis inhibition	> 43.3	17.2 ± 4.5									weakest activity	weakest activity	
COC(=O)[C@H]1[C@@H](O)[C@@]2(O)c3c(OC)cc(O[C@@H]4O[C@@H]([C@H](O)CO)CO[C@H]4OC)cc3O[C@@]2(c2ccc(OC)cc2)[C@@H]1c1ccccc1 [Silvestrol, reference compound]									cell arrest in the G1/G0 phase	cell arrest in the G1/G0 phase								low micromolar range
